Assay results from US20170150719A1, “FUNGICIDAL PYRAZOLES AND THEIR MIXTURES” (E I DU PONT DE NEMOURS AND COMPANY, priority 2010, published 2017).

Tested on: Septoria nodorum
Assay: Test E: Septoria glume blotch, preventive spray on wheat seedlings, visual disease rating
Conditions: Septoria glume blotch; 100 = 100% disease control, 0 = no disease control relative to the controls

Row | Compound | Test E rating (disease control)
1 | Cc1nn(C)c(Nc2ccc(F)cc2F)c1-c1c(F)cc(C#N)cc1F [compound 30] | 90%
2 | Cc1nn(C)c(Nc2ccc(F)cc2Cl)c1-c1c(F)cc(C#N)cc1F [compound 31] | 99%
3 | COc1cc(F)c(-c2c(C)nn(C)c2Nc2ccc(C#N)cc2Cl)c(F)c1 [compound 32] | 82%
4 | Cc1nn(C)c(Nc2c(F)cc(F)cc2F)c1-c1c(F)cc(C#N)cc1F [compound 35] | 60%
5 | COc1cc(F)c(Nc2c(-c3c(F)cc(C#N)cc3F)c(C)nn2C)c(F)c1 [compound 36] | 0%
6 | COc1cc(F)c(-c2c(C)nn(C)c2Oc2c(F)cc(C#N)cc2F)c(F)c1 [compound 38] | 87%
7 | CCOc1cc(F)c(-c2c(C)nn(C)c2Nc2ccc(F)cc2F)c(F)c1 [compound 39] | 98%
8 | COc1ccc(-c2c(C)nn(C)c2Oc2c(F)cc(C#N)cc2F)c(Cl)c1 [compound 41] | 100%
9 | COc1ccc(-c2c(C)nn(C)c2Nc2ccc(F)cc2F)c(Cl)c1 [compound 42] | 0%
10 | COc1ccc(-c2c(C)nn(C)c2Nc2c(F)cccc2F)c(Cl)c1 [compound 43] | 0%

Tested on: Blumeria graminis f. sp. tritici
Assay: Test I: wheat powdery mildew, preventive spray on wheat seedlings, visual disease rating
Conditions: wheat powdery mildew; 100 = 100% disease control, 0 = no disease control relative to the controls

Row | Compound | Test I rating (disease control)
11 | Cc1nn(C)c(Nc2ccc(F)cc2F)c1-c1c(F)cc(C#N)cc1F [compound 30] | 100%
12 | Cc1nn(C)c(Nc2ccc(F)cc2Cl)c1-c1c(F)cc(C#N)cc1F [compound 31] | 100%
13 | COc1cc(F)c(-c2c(C)nn(C)c2Nc2ccc(C#N)cc2Cl)c(F)c1 [compound 32] | 97%
14 | Cc1nn(C)c(Nc2c(F)cc(F)cc2F)c1-c1c(F)cc(C#N)cc1F [compound 35] | 94%
15 | COc1cc(F)c(Nc2c(-c3c(F)cc(C#N)cc3F)c(C)nn2C)c(F)c1 [compound 36] | 0%
16 | COc1cc(F)c(-c2c(C)nn(C)c2Oc2c(F)cc(C#N)cc2F)c(F)c1 [compound 38] | 97%
17 | CCOc1cc(F)c(-c2c(C)nn(C)c2Nc2ccc(F)cc2F)c(F)c1 [compound 39] | 100%
18 | COc1ccc(-c2c(C)nn(C)c2Oc2c(F)cc(C#N)cc2F)c(Cl)c1 [compound 41] | 99%
19 | COc1ccc(-c2c(C)nn(C)c2Nc2ccc(F)cc2F)c(Cl)c1 [compound 42] | 100%
20 | COc1ccc(-c2c(C)nn(C)c2Nc2c(F)cccc2F)c(Cl)c1 [compound 43] | 98%

Tested on: Septoria tritici
Assay: Test F: wheat leaf blotch, preventive spray on wheat seedlings, visual disease rating
Format: in vivo
Conditions: 100 = 100% disease control, 0 = no disease control relative to the controls
Text: (§1) A hyphen (-) indicates no test results.

Row | Compound | Test F rating (disease control)
21 | Cc1nn(C)c(Nc2ccc(F)cc2F)c1-c1c(F)cc(C#N)cc1F [compound 30] | 100%
22 | Cc1nn(C)c(Nc2ccc(F)cc2Cl)c1-c1c(F)cc(C#N)cc1F [compound 31] | 99%
23 | COc1cc(F)c(-c2c(C)nn(C)c2Nc2ccc(C#N)cc2Cl)c(F)c1 [compound 32] | 100%
24 | Cc1nn(C)c(Nc2c(F)cc(F)cc2F)c1-c1c(F)cc(C#N)cc1F [compound 35] | 99%
25 | COc1cc(F)c(Nc2c(-c3c(F)cc(C#N)cc3F)c(C)nn2C)c(F)c1 [compound 36] | 99%
26 | COc1cc(F)c(-c2c(C)nn(C)c2Oc2c(F)cc(C#N)cc2F)c(F)c1 [compound 38] | 99%
27 | CCOc1cc(F)c(-c2c(C)nn(C)c2Nc2ccc(F)cc2F)c(F)c1 [compound 39] | 100%
28 | COc1ccc(-c2c(C)nn(C)c2Oc2c(F)cc(C#N)cc2F)c(Cl)c1 [compound 41] | 100%
29 | COc1ccc(-c2c(C)nn(C)c2Nc2ccc(F)cc2F)c(Cl)c1 [compound 42] | 99%
30 | COc1ccc(-c2c(C)nn(C)c2Nc2c(F)cccc2F)c(Cl)c1 [compound 43] | 100%

Tested on: Botrytis cinerea
Assay: Test A: tomato Botrytis, preventive spray on tomato seedlings, visual disease rating
Conditions: tomato Botrytis; 100 = 100% disease control, 0 = no disease control relative to the controls

Row | Compound | Test A rating (disease control)
31 | Cc1nn(C)c(Nc2ccc(F)cc2F)c1-c1c(F)cc(C#N)cc1F [compound 30] | 100%
32 | Cc1nn(C)c(Nc2ccc(F)cc2Cl)c1-c1c(F)cc(C#N)cc1F [compound 31] | 100%
33 | COc1cc(F)c(-c2c(C)nn(C)c2Nc2ccc(C#N)cc2Cl)c(F)c1 [compound 32] | 99%
34 | Cc1nn(C)c(Nc2c(F)cc(F)cc2F)c1-c1c(F)cc(C#N)cc1F [compound 35] | 100%
35 | COc1cc(F)c(Nc2c(-c3c(F)cc(C#N)cc3F)c(C)nn2C)c(F)c1 [compound 36] | 99%
36 | COc1cc(F)c(-c2c(C)nn(C)c2Oc2c(F)cc(C#N)cc2F)c(F)c1 [compound 38] | 99%
37 | CCOc1cc(F)c(-c2c(C)nn(C)c2Nc2ccc(F)cc2F)c(F)c1 [compound 39] | 99%
38 | COc1ccc(-c2c(C)nn(C)c2Oc2c(F)cc(C#N)cc2F)c(Cl)c1 [compound 41] | 100%
39 | COc1ccc(-c2c(C)nn(C)c2Nc2ccc(F)cc2F)c(Cl)c1 [compound 42] | 98%
40 | COc1ccc(-c2c(C)nn(C)c2Nc2c(F)cccc2F)c(Cl)c1 [compound 43] | 98%

Tested on: Puccinia recondita f. sp. tritici
Assay: Test G: wheat leaf rust, spray after inoculation (curative) on wheat seedlings, visual disease rating
Format: in vivo
Conditions: sprayed after inoculation, 100 = 100% disease control, 0 = no disease control
Text: as §1

Row | Compound | Test G rating (disease control)
41 | Cc1nn(C)c(Nc2ccc(F)cc2F)c1-c1c(F)cc(C#N)cc1F [compound 30] | 82%
42 | Cc1nn(C)c(Nc2ccc(F)cc2Cl)c1-c1c(F)cc(C#N)cc1F [compound 31] | 53%
43 | COc1cc(F)c(-c2c(C)nn(C)c2Nc2ccc(C#N)cc2Cl)c(F)c1 [compound 32] | 11%
44 | Cc1nn(C)c(Nc2c(F)cc(F)cc2F)c1-c1c(F)cc(C#N)cc1F [compound 35] | 0%
45 | COc1cc(F)c(Nc2c(-c3c(F)cc(C#N)cc3F)c(C)nn2C)c(F)c1 [compound 36] | 0%
46 | COc1cc(F)c(-c2c(C)nn(C)c2Oc2c(F)cc(C#N)cc2F)c(F)c1 [compound 38] | 0%
47 | CCOc1cc(F)c(-c2c(C)nn(C)c2Nc2ccc(F)cc2F)c(F)c1 [compound 39] | 0%
48 | COc1ccc(-c2c(C)nn(C)c2Oc2c(F)cc(C#N)cc2F)c(Cl)c1 [compound 41] | 92%
49 | COc1ccc(-c2c(C)nn(C)c2Nc2ccc(F)cc2F)c(Cl)c1 [compound 42] | 8%
50 | COc1ccc(-c2c(C)nn(C)c2Nc2c(F)cccc2F)c(Cl)c1 [compound 43] | 95%

Tested on: Alternaria solani
Assay: Test B: tomato early blight, preventive spray on tomato seedlings, visual disease rating
Conditions: tomato early blight; 100 = 100% disease control, 0 = no disease control relative to the controls
Procedure: General protocol for preparing test suspensions for Tests A-I: the test compounds were first dissolved in acetone in an amount equal to 3% of the final volume and then suspended at the desired concentration (in ppm) in acetone and purified water (50/50 mix by volume) containing 250 ppm of the surfactant Trem® 014 (polyhydric alcohol esters). The resulting test suspensions were then used in Tests A-I. Each test was conducted in triplicate, and the results were averaged. Spraying a 200 ppm test suspension to the point of run-off on the test plants was the equivalent of a rate of about 800 g/ha. Unless otherwise indicated, the rating values indicate a 200 ppm test suspension was used. (An asterisk “*” next to the rating value indicates a 40 ppm test suspension was used.)
The test suspension was sprayed to the point of run-off on tomato seedlings. The following day the seedlings were inoculated with a spore suspension of Alternaria solani (the causal agent of tomato early blight) and incubated in a saturated atmosphere at 27° C. for 48 h, and then moved to a growth chamber at 20° C. for 5 days, after which time visual disease ratings were made.

Row | Compound | Test B rating (disease control)
51 | Cc1nn(C)c(Nc2ccc(F)cc2F)c1-c1c(F)cc(C#N)cc1F [compound 30] | 99%
52 | Cc1nn(C)c(Nc2ccc(F)cc2Cl)c1-c1c(F)cc(C#N)cc1F [compound 31] | 98%
53 | COc1cc(F)c(-c2c(C)nn(C)c2Nc2ccc(C#N)cc2Cl)c(F)c1 [compound 32] | 97%
54 | Cc1nn(C)c(Nc2c(F)cc(F)cc2F)c1-c1c(F)cc(C#N)cc1F [compound 35] | 100%
55 | COc1cc(F)c(Nc2c(-c3c(F)cc(C#N)cc3F)c(C)nn2C)c(F)c1 [compound 36] | 0%
56 | COc1cc(F)c(-c2c(C)nn(C)c2Oc2c(F)cc(C#N)cc2F)c(F)c1 [compound 38] | 94%
57 | CCOc1cc(F)c(-c2c(C)nn(C)c2Nc2ccc(F)cc2F)c(F)c1 [compound 39] | 99%
58 | COc1ccc(-c2c(C)nn(C)c2Oc2c(F)cc(C#N)cc2F)c(Cl)c1 [compound 41] | 99%
59 | COc1ccc(-c2c(C)nn(C)c2Nc2ccc(F)cc2F)c(Cl)c1 [compound 42] | 99%
60 | COc1ccc(-c2c(C)nn(C)c2Nc2c(F)cccc2F)c(Cl)c1 [compound 43] | 100%

Tested on: Puccinia recondita f. sp. tritici
Assay: Test H: wheat leaf rust, preventive spray on wheat seedlings, visual disease rating
Conditions: wheat leaf rust, sprayed the day before inoculation; 100 = 100% disease control, 0 = no disease control

Row | Compound | Test H rating (disease control)
61 | Cc1nn(C)c(Nc2ccc(F)cc2F)c1-c1c(F)cc(C#N)cc1F [compound 30] | 99%
62 | Cc1nn(C)c(Nc2ccc(F)cc2Cl)c1-c1c(F)cc(C#N)cc1F [compound 31] | 100%
63 | COc1cc(F)c(-c2c(C)nn(C)c2Nc2ccc(C#N)cc2Cl)c(F)c1 [compound 32] | 98%
64 | Cc1nn(C)c(Nc2c(F)cc(F)cc2F)c1-c1c(F)cc(C#N)cc1F [compound 35] | 100%
65 | COc1cc(F)c(Nc2c(-c3c(F)cc(C#N)cc3F)c(C)nn2C)c(F)c1 [compound 36] | 41%
66 | COc1cc(F)c(-c2c(C)nn(C)c2Oc2c(F)cc(C#N)cc2F)c(F)c1 [compound 38] | 96%
67 | CCOc1cc(F)c(-c2c(C)nn(C)c2Nc2ccc(F)cc2F)c(F)c1 [compound 39] | 99%
68 | COc1ccc(-c2c(C)nn(C)c2Oc2c(F)cc(C#N)cc2F)c(Cl)c1 [compound 41] | 100%
69 | COc1ccc(-c2c(C)nn(C)c2Nc2ccc(F)cc2F)c(Cl)c1 [compound 42] | 100%
70 | COc1ccc(-c2c(C)nn(C)c2Nc2c(F)cccc2F)c(Cl)c1 [compound 43] | 100%
